We go through 2 molecules from patent US11459375B2, “Cyclic peptides for the treatment of Graves' disease” (advanceCOR GmbH, priority 2017, dated 2022).

Peptide text beside a SMILES is read from it.

The test system of assay [1] is Ad-TSHR-immunized mice. In words: anti-TSHR antibody titers in serum of treated Ad-TSHR-immunized mice (3rd generation ELISA, inhibition of M22 binding to TSHR). The format is in vivo, BALB/c mice. The conditions noted are these: 1 mg/kg IV at 4-weekly intervals, after start of therapy despite continuing immunisations. The procedure:
The measurements were carried out in Ad-TSHR-immunized mice treated by either 4-weekly injections with vehicle (0.9% NaCl, “Graves' no therapy”, n=25 mice), or administrations of 1 mg/kg body weight of peptide of the invention 836 (12 mice), or of peptide 829 (13 mice), or of TSHR-Fc (18 mice), or of control peptide 835 (13 mice). In addition, age-matched immunologically naïve unimmunized mice (“healthy”, 19 animals) were investigated. Data are represented as mean±SEM. Significance over time was tested by analysis of variance (ANOVA) of groups at given time points, and controlled by ANOVA for repeated measurements within one group, followed by LSD post-hoc testing. *p<0.05, and **p<0.005, compared to the TSHR-immunized group treated with only NaCl (“Graves' no therapy”).
Animals were kept under standard housing conditions (23±2° C., 55±10% RH) in groups of ten animals in GR1800DD cages (Tecniplast®). […] All guidelines for care of animals were respected. Mice received 10^10 plaque-forming units (pfu) of adenovirus carrying the A-subunit of the TSHR gene. […]
Anti-TSHR autoantibody titers and potency of antibodies to stimulate TSHR-dependent cAMP levels in test cells were determined before start of immunisation (basal value), 56 days after first immunisation, 133 days after first immunisation, and 189 days after first immunisation, and at the end of experiment.
In general terms: ELISA stands for enzyme-linked immunosorbent assay.

In assay [2] the test system is Ad-TSHR-immunized mice. In words: ventricular myocardial volumes from digitized cross-sectional LV areas. It counts as in vivo, BALB/c mice. The conditions noted are these: 1 mg/kg IV 4-weekly, end of experiment. How it is done: In FIG. 7 the effect of the peptide therapy on heart rates at various times during the experiment (A), and on heart weights (B) and cardiac ventricular volumes (C) at the end of the experiment were evaluated in all animals. The measurements were carried out in Ad-TSHR-immunized mice treated by either 4-weekly injections with vehicle (0.9% NaCl, “Graves' no therapy”, n=25 mice), or administrations of 1 mg/kg body weight of peptide of the invention 836 (12 mice), or of peptide 829 (13 mice), or TSHR-Fc (18 mice). In addition, age-matched immunologically naïve unimmunized mice (“healthy”, 19 animals) were investigated. Data are represented as mean±SEM. […]
After euthanasia, dissection of the thyroid glands was performed under a stereomicroscope, as described before (22). […] Thyroid volumes (mm^3) were calculated from the sum of the areas of each section over the whole cutting region. Myocardial volumes (mm^3) were calculated in a similar way as described for thyroid glands from the sum of the areas of each section over whole cutting region (5 to 6 slides, depending on respective size of the hearts). […]

For the molecule `CC[C@H](C)[C@@H]1NC(=O)[C@H](C(C)C)NC(=O)[C@H]([C@@H](C)O)NC(=O)[C@H](CC(C)C)NC(=O)[C@H](Cc2ccc(O)cc2)NC(=O)[C@H](CCCCN)NC(=O)[C@H](CC(N)=O)NC(=O)[C@H](CCCCN)NC(=O)[C@H](CC(N)=O)NC(=O)[C@H](CC(C)C)NC(=O)[C@H](Cc2ccc(O)cc2)NC(=O)[C@H](C(C)C)NC(=O)[C@H](C)NC(=O)[C@H](CC(=O)O)NC(=O)[C@H](CC(C)C)NC(=O)[C@H](CCCCN)NC(=O)[C@H]([C@@H](C)O)NC(=O)CNC(=O)[C@H](CC(N)=O)NC(=O)[C@H](Cc2ccccc2)NC(=O)[C@H](C)NC(=O)[C@H](Cc2ccc(O)cc2)NC(=O)CNC(=O)[C@H](CC(=O)O)NC1=O` [peptide 836] (cyclo(GYAFNGTKLDAVYLNKNKYLTVID)), the “time course of anti-TSHR antibody titers” value with Ad-TSHR-immunized mice [1] was “no trends for further anti-TSHR titer increases after start of therapy”. The ventricular myocardial volumes result in the assay on Ad-TSHR-immunized mice [2] was “significantly reduced ventricular myocardial volumes”.

Take “TSHR-Fc: fusion protein: first 289 amino acids of human TSH receptor (A-subunit), GGR linker and Fc portion of human IgG2”: in the assay with Ad-TSHR-immunized mice [1], the “time course of anti-TSHR antibody titers” value is “no trends for further anti-TSHR titer increases after start of therapy”. In addition, the ventricular myocardial volumes result with Ad-TSHR-immunized mice [2] is “significantly reduced ventricular myocardial volumes”.
